The values that follow come from patent US8501755B2, “Tetrahydropyridothienopyrimidine compounds and methods of use thereof” (Bayer Intellectual Property GmbH, priority 2006, dated 2013).

What all share (type): cell-based
Test [1] relates to N87. In words: In vitro tumor cell proliferation assay (Cell Titer-Glo) in N87 cells. The note with it: N87 human gastric carcinoma overexpressing HER2 and HER1; 72 hours exposure; read-out: IC50, activities in N87 cell lines. The text has this: (§1) The tumor cell proliferation assay used to test the compounds of the present invention involves a readout called Cell Titer-Glow® Luminescent Cell Viability Assay developed by Promega® (Cunningham, BA “A Growing Issue: Cell Proliferation Assays, Modern kits ease quantification of cell growth” The Scientist 2001, 15(13), 26, and Crouch, S P et al., “The use of ATP bioluminescence as a measure of cell proliferation and cytotoxicity” Journal of Immunological Methods 1993, 160, 81-88), that measures inhibition of cell proliferation. Generation of a luminescent signal corresponds to the amount of ATP present, which is directly proportional to the number of metabolically active (proliferating) cells. A431 cells [human epidermoid carcinoma, ATCC # HTB-20, overexpressing HER1 (EGFR, ErbB1)] and N87 [human gastric carcinoma, ATCC # CRL-1555, overexpressing HER2 (ErbB2) and HER1 (EGFR, ErbB1)] were plated at a density of 2.5×10^3 cells/well in 96 well black-clear bottom tissue culture plates in RPMI media with 10% Fetal Bovine Serum and incubated at 37° C. Twenty-four hours later, test compounds are added at a final concentration range from as high 100 μm to as low […] depend on the activities of the tested compounds in serial dilutions at a final DMSO concentration of 0.1%. Cells were incubated for 72 hours at 37° C. in complete growth media after addition of the test compound. After 72 hours of drug exposure, the plates were equilibrated to room temperature for approximately 30 min. Then, using a Promega Cell Titer Glo Luminescent® assay kit, lysis buffer containing 100 microliters of the enzyme luciferase and its substrate, luciferin mixture, was added to each well. The plates were mixed for 2 min on orbital shaker to ensure cell lysis and incubated for 10 min at room temperature to stabilize luminescence signal. The samples were read on VICTOR2 using Luminescence protocol, and analyzed with Analyze5 software to generate IC50 values.
For orientation: ATP-based viability assays read luminescence as a measure of living cells.

Test [2] has as its system H1975 cells. The experiment in a line: In vitro tumor cell proliferation assay (Cell Titer-Glo) in H1975 cells. The note with it: NCI-H1975; H1975 human NSCLC expressing mutant HER1 (L858R,T790M); 72 hours exposure; read-out: IC50, activities in H 1975 cell lines. The text has this: The tumor cell proliferation assay used to test the compounds of the present invention involves a readout called Cell Titer-Glow® Luminescent Cell Viability Assay developed by Promega® (Cunningham, BA “A Growing Issue: Cell Proliferation Assays, Modern kits ease quantification of cell growth” The Scientist 2001, 15(13), 26, and Crouch, S P et al., “The use of ATP bioluminescence as a measure of cell proliferation and cytotoxicity” Journal of Immunological Methods 1993, 160, 81-88), that measures inhibition of cell proliferation. Generation of a luminescent signal corresponds to the amount of ATP present, which is directly proportional to the number of metabolically active (proliferating) cells.
H1975 cells [human non small cell lung carcinoma, ATCC # CRL-5908, expressing mutant HER1 [(EGFR, ErbB1)(L858R,T790M] were plated at a density of 3×10^3 cells/well in 96 well black-clear bottom tissue culture plates in RPMI media with 10% Fetal Bovine Serum and incubated at 37° C. Twenty-four hours later, test compounds are added at a final concentration range from as high 10 uM to as low 64 pM depending on the activities of the tested compounds in serial dilutions at a final DMSO concentration of 0.1%. Cells were incubated for 72 hours at 37° C. in complete growth media after addition of the test compound. After 72 hours of drug exposure, the plates were equilibrated to room temperature for approximately 30 min. Then, using a Promega Cell Titer Glo Luminescent® assay kit, lysis buffer containing 100 microliters of the enzyme luciferase and its substrate, luciferin mixture, was added to each well. The plates were mixed for 2 min on orbital shaker to ensure cell lysis and incubated for 10 min at room temperature to stabilize luminescence signal. The samples were read on VICTOR2 using Luminescence protocol, and analyzed with Analyze5 software to generate IC50 values.

The subject of test [3] is A431 cells. In words: In vitro tumor cell proliferation assay (Cell Titer-Glo) in A431 cells. The note with it: Homo sapiens, A-431, 72 h, A431 human epidermoid carcinoma overexpressing HER1; 72 hours exposure; read-out: IC50, activities in A431 cell lines.
Description: as §1

Molecules are shown by their SMILES.

By IC50 is commonly meant the concentration that inhibits the measured activity by half. Regarding `O=C(/C=C/CN1CCOCC1)N1CCc2c(sc3ncnc(Nc4ccc(OCc5ccccn5)c(Cl)c4)c23)C1` [Example 1, 1-{4-[3-Chloro-4-(pyridin-2-ylmethoxy)-phenylamino]-5,8-dihydro-6H-9-thia-1,3,7 triaza-fluoren-7-yl}-4-morpholin-4-yl-but-2-en-1-one], the values for the IC50 in test [1], in test [2] and in test [3] were less than 200 nM, 200 to 1000 nM and less than 200 nM, respectively.

Take `CCN(CC)C/C=C/C(=O)N1CCc2c(sc3ncnc(Nc4ccc(OCc5ccccn5)c(Cl)c4)c23)C1` [Example 2, N-[3-chloro-4-(pyridin-2-ylmethoxy)phenyl]-7-[(2E)-4-(diethylamino)but-2-enoyl]-5,6,7,8-tetrahydropyrido[4′,3′:4,5]thieno[2,3-d]pyrimidin-4-amine]: the IC50 in test [1] is less than 200 nM; in test [2], 1000 to 10000 nM; in test [3], less than 200 nM.

`CN(C)C/C=C/C(=O)N1CCc2c(sc3ncnc(Nc4ccc(OCc5ccccn5)c(Cl)c4)c23)C1` [Example 3, N-[3-chloro-4-(pyridin-2-ylmethoxy)phenyl]-7-[(2E)-4-(dimethylamino)but-2-enoyl]-5,6,7,8-tetrahydropyrido[4′,3′:4,5]thieno[2,3-d]pyrimidin-4-amine]: the IC50 in test [1] was less than 200 nM; in test [2], 200 to 1000 nM; in test [3], less than 200 nM.

With `O=C(/C=C/CN1CCCCC1)N1CCc2c(sc3ncnc(Nc4ccc(OCc5ccccn5)c(Cl)c4)c23)C1` [Example 4, N-[3-chloro-4-(pyridin-2-ylmethoxy)phenyl]-7-[(2E)-4-piperidin-1-ylbut-2-enoyl]-5,6,7,8-tetrahydropyrido[4′,3′:4,5]thieno[2,3-d]pyrimidin-4-amine], the concentration for half-maximal inhibition (IC50) in test [1] was less than 200 nM; in test [2], 200 to 1000 nM; in test [3] it was less than 200 nM.

With `CN1CCN(C/C=C/C(=O)N2CCc3c(sc4ncnc(Nc5ccc(OCc6ccccn6)c(Cl)c5)c34)C2)CC1` [Example 5, N-[3-chloro-4-(pyridin-2-ylmethoxy)phenyl]-7-[(2E)-4-(4-methylpiperazin-1-yl)but-2-enoyl]-5,6,7,8-tetrahydropyrido[4′,3′:4,5]thieno[2,3-d]pyrimidin-4-amine], the IC50 in test [1] is less than 200 nM; in test [2] it was 1000 to 10000 nM; in test [3], less than 200 nM.

Take `O=C(/C=C/CN1CCOCC1)N1CCc2c(sc3ncnc(Nc4ccc(F)c(Cl)c4)c23)C1` [Example 6, N-(3-chloro-4-fluorophenyl)-7-[(2E)-4-morpholin-4-ylbut-2-enoyl]-5,6,7,8-tetrahydropyrido[4′,3′:4,5]thieno[2,3-d]pyrimidin-4-amine]: the half-maximal inhibitory concentration (IC50) was less than 200 nM in test [1], 1000 to 10000 nM in test [2] and less than 200 nM in test [3].

For `CN(C)C/C=C/C(=O)N1CCc2c(sc3ncnc(Nc4ccc(F)c(Cl)c4)c23)C1` [Example 7, N-(3-chloro-4-fluorophenyl)-7-[(2E)-4-(dimethylamino)but-2-enoyl]-5,6,7,8-tetrahydropyrido[4′,3′:4,5]thieno[2,3-d]pyrimidin-4-amine], the half-inhibitory concentration (IC50) was less than 200 nM in test [1], 200 to 1000 nM in test [2] and less than 200 nM in test [3].

In the case of `CN1CCN(C/C=C/C(=O)N2CCc3c(sc4ncnc(Nc5ccc(F)c(Cl)c5)c34)C2)CC1` [Example 8, N-(3-chloro-4-fluorophenyl)-7-[(2E)-4-(4-methylpiperazin-1-yl)but-2-enoyl]-5,6,7,8-tetrahydropyrido[4′,3′:4,5]thieno[2,3-d]pyrimidin-4-amine], the half-maximal inhibitory concentration (IC50) in test [1] was less than 200 nM; in test [2], 1000 to 10000 nM; in test [3], 200 to 1000 nM.

For the molecule `CCN(CC)C/C=C/C(=O)N1CCc2c(sc3ncnc(Nc4ccc(F)c(Cl)c4)c23)C1` [Example 9, N-(3-chloro-4-fluorophenyl)-7-[(2E)-4-(diethylamino)but-2-enoyl]-5,6,7,8-tetrahydropyrido[4′,3′:4,5]thieno[2,3-d]pyrimidin-4-amine], the IC50 in test [1] is less than 200 nM; in test [2], 1000 to 10000 nM; in test [3], less than 200 nM.

On to `C#Cc1cccc(Nc2ncnc3sc4c(c23)CCN(C(=O)/C=C/CN2CCN(C)CC2)C4)c1` [Example 18, N-(3-ethynylphenyl)-7-[(2E)-4-(4-methylpiperazin-1-yl)but-2-enoyl]-5,6,7,8-tetrahydropyrido [4′,3′:4,5]thieno[2,3-d]pyrimidin-4-amine], for which the IC50 in test [1] and in test [3] was less than 200 nM each time.

Regarding `O=C(/C=C/Cn1ccnc1)N1CCc2c(sc3ncnc(Nc4ccc(F)c(Cl)c4)c23)C1` [Example 34, N-(3-chloro-4-fluorophenyl)-7-[(2E)-4-(1H-imidazol-1-yl)but-2-enoyl]-5,6,7,8-tetrahydropyrido [4′,3′:4,5]thieno[2,3-d]pyrimidin-4-amine], the IC50 in test [2] and in test [3] was 1000 to 10000 nM each time.

`CC(C)N(C)C/C=C/C(=O)N1CCc2c(sc3ncnc(Nc4ccc(F)c(Cl)c4)c23)C1` [Example 36, N-(3-chloro-4-fluorophenyl)-7-{(2E)-4-[isopropyl(methyl)amino]but-2-enoyl}-5,6,7,8-tetrahydropyrido[4′,3′:4,5]thieno[2,3-d]pyrimidin-4-amine]: the IC50 in test [1] and in test [2] was less than 200 nM in each case.

On to `CN(C/C=C/C(=O)N1CCc2c(sc3ncnc(Nc4ccc(F)c(Cl)c4)c23)C1)C(C)(C)C` [Example 55, 7-{(2E)-4-[tert-butyl(methyl)amino]but-2-enoyl}-N-(3-chloro-4-fluorophenyl)-5,6,7,8-tetrahydropyrido [4′,3′:4,5]thieno[2,3-d]pyrimidin-4-amine], for which the results for the IC50 in test [1] and in test [2] were less than 200 nM and 200 to 1000 nM, respectively.

On to `O=C(/C=C/CN1CCOCC1)N1CCc2c(sc3ncnc(Nc4ccc5c(ccn5Cc5ccccn5)c4)c23)C1` [Example 120, 7-[(2E)-4-morpholin-4-ylbut-2-enoyl]-N-[1-(pyridin-2-ylmethyl)-1H-indol-5-yl]-5,6,7,8-tetrahydropyrido [4′,3′:4,5]thieno[2,3-d]pyrimidin-4-amine], for which the IC50 was less than 200 nM in test [1] and 200 to 1000 nM in test [3].

Take `CN(C/C=C/C(=O)N1CCc2c(sc3ncnc(Nc4ccc5c(ccn5Cc5ccccc5)c4)c23)C1)C(C)(C)C` [Example 131, N-(1-benzyl-1H-indol-5-yl)-7-{(2E)-4-[tert-butyl(methyl)amino]but-2-enoyl}-5,6,7,8-tetrahydropyrido [4′,3′:4,5]thieno[2,3-d]pyrimidin-4-amine]: the IC50 in test [1] is less than 200 nM.

For `O=C(C#CCN1CCOCC1)N1CCc2c(sc3ncnc(Nc4ccc(F)c(Cl)c4)c23)C1` [Example 137, N-(3-chloro-4-fluorophenyl)-7-(4-morpholin-4-ylbut-2-ynoyl)-5,6,7,8-tetrahydropyrido [4′,3′:4,5]thieno[2,3-d]pyrimidin-4-amine], the IC50 was less than 200 nM in test [1] and 1000 to 10000 nM in test [3].

Turning to `C#Cc1cccc(Nc2ncnc3sc4c(c23)CCN(C(=O)C#CCN2CCOCC2)C4)c1` [Example 138, N-(3-ethynylphenyl)-7-(4-morpholin-4-ylbut-2-ynoyl)-5,6,7,8-tetrahydropyrido [4′,3′:4,5]thieno[2,3-d]pyrimidin-4-amine], the IC50 was less than 200 nM in test [1] and 200 to 1000 nM in test [3].

Consider `CC1CCCCN1C/C=C/C(=O)N1CCc2c(sc3ncnc(Nc4ccc(Cl)c(Cl)c4)c23)C1` (stereo not shown) [Example 210, N-(3,4-dichlorophenyl)-7-[(2E)-4-(2-methylpiperidin-1-yl)but-2-enoyl]-5,6,7,8-tetrahydropyrido [4′,3′:4,5]thieno[2,3-d]pyrimidin-4-amine], for which the IC50 in test [1] is less than 200 nM.
